Measurements from ChEMBL document CHEMBL1201862, “PubChem BioAssay data set” (2004).
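Five compound concentrations were applied to cells in 96-well plates for 48 hours; endpoints were derived by simple linear interpolation of the resulting dose-response curve. At the GI50, growth is halved.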 Calls of active or inactive are those of the source. Cut-off read from the data, not from the text of the source: active = GI50 up to about 1.1 µM and inactive = higher.

What was measured:
Test in all cases: NCI-60 cell line screen, 48 h
T47D = tested on: T47D
SNB-19 = tested on: SNB-19
KM12 = tested on: KM12
ACHN = tested on: ACHN
UACC-62 = tested on: UACC-62
OVCAR-8 = tested on: OVCAR-8
SW-620 = tested on: SW-620
A549 = tested on: A549
NCI-H460 = tested on: NCI-H460
COLO 205 = tested on: COLO 205
HCT-116 = tested on: HCT-116
NCI/ADR-RES = tested on: NCI/ADR-RES
SK-OV-3 = tested on: SK-OV-3
OVCAR-4 = tested on: OVCAR-4
HCC 2998 = tested on: HCC 2998
K562 = tested on: K562
HT-29 = tested on: HT-29
MDA-N = tested on: MDA-N
SNB-75 = tested on: SNB-75
HOP-62 = tested on: HOP-62

Measured: GI50

O=C(NCCCN(CCCCN(CCCNC(=O)C(F)(F)F)Cc1ccccc1)Cc1ccccc1)C(F)(F)F
inactive: T47D 17.7 µM | SNB-19 13.7 µM | KM12 13.2 µM | ACHN 16.5 µM | UACC-62 16.9 µM | OVCAR-8 14 µM | SW-620 16.5 µM | A549 24.2 µM | NCI-H460 10.4 µM | COLO 205 10.7 µM | HCT-116 11.5 µM | NCI/ADR-RES 14.7 µM | SK-OV-3 20.1 µM | OVCAR-4 16.8 µM | HCC 2998 4.24 µM | K562 13.7 µM | HT-29 6.49 µM | MDA-N 15.7 µM | SNB-75 12.6 µM

Nc1nc(Nc2ccccc2)c2[nH]cnc2n1
inactive: T47D > 100 µM | SNB-19 > 100 µM | KM12 35.6 µM | ACHN 41.9 µM | UACC-62 33.3 µM | OVCAR-8 > 100 µM | SW-620 > 100 µM | A549 > 100 µM | HOP-62 > 100 µM | COLO 205 89.9 µM | HCT-116 69 µM | NCI/ADR-RES > 100 µM | SK-OV-3 84.5 µM | OVCAR-4 > 100 µM | HCC 2998 86.3 µM | K562 62.5 µM | HT-29 63.7 µM | MDA-N 47.8 µM | SNB-75 9.57 µM

N#Cc1c(N)c2c(c(-c3ccccc3)c1-c1ccccc1)C(=O)N(Nc1ccccc1)C2=O
inactive: T47D 19.4 µM | SNB-19 45.8 µM | KM12 24.2 µM | ACHN 59.2 µM | UACC-62 49.9 µM | OVCAR-8 78.3 µM | SW-620 > 100 µM | A549 26.9 µM | NCI-H460 34 µM | COLO 205 20.7 µM | HCT-116 12.9 µM | NCI/ADR-RES 38.2 µM | OVCAR-4 35.1 µM | HCC 2998 35.8 µM | K562 33.6 µM | MDA-N 36.8 µM | SNB-75 38.4 µM

COCc1cc2c(cc1/C=C/[N+](=O)[O-])OCO2
inactive: T47D 21.1 µM | KM12 20.8 µM | ACHN 17.1 µM | UACC-62 17.9 µM | OVCAR-8 23 µM | SW-620 17.7 µM | A549 17.1 µM | NCI-H460 17.7 µM | HOP-62 20.7 µM | COLO 205 18.2 µM | HCT-116 17.9 µM | NCI/ADR-RES 25.2 µM | SK-OV-3 17.9 µM | HCC 2998 17.5 µM | K562 > 100 µM | HT-29 18.5 µM | MDA-N 17.7 µM | SNB-75 17.9 µM

OC(Cc1cccc2ccccc12)CN1CCC(c2ccccc2)CC1 (stereo unspecified)
inactive: T47D 14.3 µM | SNB-19 13 µM | KM12 14.8 µM | ACHN 17.1 µM | UACC-62 15.3 µM | OVCAR-8 16.8 µM | SW-620 15 µM | A549 15.9 µM | NCI-H460 13.9 µM | HOP-62 15.8 µM | COLO 205 13 µM | HCT-116 13.2 µM | NCI/ADR-RES 14.9 µM | SK-OV-3 17.5 µM | HCC 2998 2.56 µM | K562 12.5 µM | HT-29 11.2 µM | MDA-N 14.3 µM | SNB-75 12.3 µM

O=C1CC2CCC(C1)[S+]2[O-] (stereo unspecified)
inactive: T47D > 100 µM | SNB-19 > 100 µM | KM12 > 100 µM | UACC-62 > 100 µM | OVCAR-8 > 100 µM | SW-620 > 100 µM | A549 > 100 µM | NCI-H460 > 100 µM | HOP-62 > 100 µM | COLO 205 > 100 µM | HCT-116 > 100 µM | NCI/ADR-RES > 100 µM | SK-OV-3 > 100 µM | OVCAR-4 > 100 µM | HCC 2998 > 100 µM | K562 > 100 µM | HT-29 > 100 µM | MDA-N > 100 µM | SNB-75 > 100 µM
